This passage reports IC50 results from article PMC4140839 (PLoS ONE, 2014).

The target of the assay is T1, RsASML (Ralstonia pseudosolanacearum, UniProt Q8XPM9).
T1 construct: gene RSp1609
T1 sequence (Q8XPM9 30-476 limits assumed): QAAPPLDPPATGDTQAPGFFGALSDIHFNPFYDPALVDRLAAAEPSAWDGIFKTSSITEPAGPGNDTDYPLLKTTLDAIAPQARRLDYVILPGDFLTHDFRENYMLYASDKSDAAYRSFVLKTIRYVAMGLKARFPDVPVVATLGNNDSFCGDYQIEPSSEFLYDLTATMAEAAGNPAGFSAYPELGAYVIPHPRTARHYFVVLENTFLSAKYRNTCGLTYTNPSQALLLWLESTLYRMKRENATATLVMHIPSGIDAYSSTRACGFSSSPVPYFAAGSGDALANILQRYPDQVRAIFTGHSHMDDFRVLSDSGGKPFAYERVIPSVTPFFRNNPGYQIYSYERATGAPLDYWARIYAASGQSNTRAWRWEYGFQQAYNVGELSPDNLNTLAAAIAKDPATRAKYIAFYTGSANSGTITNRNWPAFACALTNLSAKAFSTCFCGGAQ
Description: biochemical.
As to `Nc1nc2c(ncn2[C@@H]2O[C@H](COP(=O)(O)OP(=O)(O)OP(=O)(O)O)[C@@H](O)[C@H]2O)c(=O)[nH]1` [GTP], half-maximal inhibition (IC50) required 44.2 µM.

Consider `O=P(O)(O)OC[C@H](O)CO` [L-α-glycerolphosphate], for which the IC50 (commonly the concentration needed to halve the response being measured) turned out to be 746 µM.

`Nc1ncnc2c1ncn2[C@@H]1O[C@H](CO)[C@@H](O)[C@H]1O` [Adenosine] yielded a 50% inhibitory concentration (IC50) of 243 µM. This IC50 lies about 3.1-fold lower than the previous one.

Consider `O=c1ccn([C@@H]2O[C@H](COP(=O)(O)OP(=O)(O)OP(=O)(O)O)[C@@H](O)[C@H]2O)c(=O)[nH]1` [UTP], for which half-maximal inhibition (IC50) was put at 1360 µM.

With `Nc1ncnc2c1ncn2[C@@H]1O[C@H](COP(=O)(O)O)[C@@H](O)[C@H]1O` [AMP], the IC50 came to 0.075 µM.

`O=P(O)(O)O` [Phosphate] registered an IC50 of 265 µM.

The compound `Cc1cn([C@H]2C[C@H](O)[C@@H](COP(=O)(O)O)O2)c(=O)[nH]c1=O` [TMP] yielded an IC50 of 35.9 µM.

In turn, `Nc1ncnc2c1ncn2[C@@H]1O[C@H](COP(=O)(O)OP(=O)(O)OP(=O)(O)O)[C@@H](O)[C@H]1O` [ATP] came in with an IC50 of 0.0586 µM.

The compound `NC(=O)C1=CN([C@@H]2O[C@H](COP(=O)(O)OP(=O)(O)OC[C@H]3O[C@@H](n4cnc5c(N)ncnc54)[C@H](OP(=O)(O)O)[C@@H]3O)[C@@H](O)[C@H]2O)C=CC1` [β-NADPH] showed an IC50 of 52.1 µM. Against the preceding compound, the IC50 is about 890-fold higher.

As for `Nc1ncnc2c1ncn2[C@@H]1O[C@H](COP(=O)(O)OP(=O)(O)O)[C@@H](O)[C@H]1O` [ADP], the 50% inhibitory concentration (IC50) amounted to 0.0705 µM.

Take `C[N+](C)(C)CCOP(=O)([O-])O` [Phosphocholine]: 4430 µM corresponded to half-maximal inhibition (IC50).

With `Nc1ccn([C@@H]2O[C@H](COP(=O)(O)OP(=O)(O)OP(=O)(O)O)[C@@H](O)[C@H]2O)c(=O)n1` [CTP], the IC50 was 1500 µM. Compared with the last compound, the IC50 is about 3-fold lower.

Compound `C[N+](C)(C)CCOP(=O)([O-])OC[C@H](O)CO` [L-α-glycerolphosphocholine] showed an IC50 of 64.6 µM. Compared with the last compound, the IC50 is about 23-fold lower.

For `Cc1cn([C@H]2C[C@H](O)[C@@H](COP(=O)(O)OP(=O)(O)OP(=O)(O)O)O2)c(=O)[nH]c1=O` [TTP], the IC50 turned out to be 201 µM. This IC50 lies about 3.1-fold higher than the previous one.

The compound `NC(=O)c1ccc[n+]([C@@H]2O[C@H](COP(=O)(O)OP(=O)(O)OC[C@H]3O[C@@H](n4cnc5c(N)ncnc54)[C@H](O)[C@@H]3O)[C@@H](O)[C@H]2O)c1` [NAD^+] yielded an IC50 of 0.0663 µM.
